The source of these data is publication PMC8008393, “Preclinical Lead Optimization of a 1,2,4-Triazole Based Tankyrase Inhibitor” (Journal of Medicinal Chemistry, 2020).

A short description of data set [1]: kinetic solubility assay. In kind it is physicochemical. The conditions noted are these: for solubility: Table 2. As for the experimental part: (§1) Kinetic solubility assay was performed following standard protocols of Mercachem. The following assays were performed according to the standard protocols of Cyprotex: Caco-2 permeability, dog microsomal stability, hepatocyte stability (human, mouse, dog, rat, and cynomolgus), CYP3A4 inhibition, mouse plasma stability, mouse plasma protein binding, and Ames test.

Data set [2] in a line: Caco-2 permeability. In kind it is in vitro ADME. As to conditions: human. As for the experimental part:
as §1
For orientation: Passage across Caco-2 layers is used to estimate intestinal permeability.

Data set [3] in a line: microsomal stability, human liver microsomes. In kind it is in vitro ADME. As to conditions: for half-life at 1 μM: pH 7.4, read-out: Microsomal stability t1/2 human. As for the experimental part:
(§2) Test compounds in DMSO (10 mM) were further diluted to 100 μM in acetonitrile. Human or mouse liver microsomes (BioIVT) from selected species are incubated in duplicate with the test compound at a final concentration of 1 μM in 0.1 M potassium phosphate buffer (pH 7.4) containing 3.3 mM MgCl2, 0.5 mg/mL microsomal protein, in the presence or absence of NADPH (1 mM). Incubations were performed at 37 °C in a total volume of 500 μL. Control incubations with reference substances were included for each experiment. At t = 0, 5, 15, 30, 45 min, an amount of 50 μL of the incubation mixture was transferred to a quench plate containing acetonitrile and internal standard (200 nM labetalol) cooled at 4 °C. After the last time point, the quench plates are mixed thoroughly and centrifuged for 15 min at 3700 rpm and 10 °C (Eppendorf 5804R). The supernatant was transferred to a 96-well plate and analyzed by LCMS (Vanquish Horizon UHPLC equipped with a diode array detector coupled to a Q Exactive focus hybrid quadrupole-Orbitrap mass spectrometer). The metabolic stability is evaluated by plotting the natural logarithm of the percentage test compound remaining versus time and performing linear regression.

Data set [4] can be described thus: microsomal stability, mouse liver microsomes. It is filed as in vitro ADME. The conditions noted are these: for half-life at 1 μM: pH 7.4, read-out: Microsomal stability t1/2 mouse. As for the experimental part:
as §2
(Microsomes from liver hold many membrane-bound enzymes, among them those of drug oxidation.)

A short description of data set [5]: in vivo. The protocol: (§3) In the first round of the optimization campaign, we prepared single-point modifications changing any of the four regions in 1 (Figure 1) while leaving the other regions constant. In the following stages of the optimization campaign, additional East, West, and South moieties were also utilized, combining the best structural elements of the first single-point modification round. For the optimization, in vitro ADME properties and solubility of selected compounds were measured.
The pharmacokinetical analyses in mice were performed according to the standard protocols of Medicilon and, as previously described,[9] using 3 animals per treatment group using 5% DMSO, 50% PEG400 (both Sigma-Aldrich) and 45% saline as vehicle.

Data set [6] has as its system PARPs/ARTDs ARTD1/2/3/4/7/8/10/12. Kind of data set: PARP/ARTD family selectivity, biochemical assays.
Data set [7] in a line: hepatocyte stability, human. It is filed as in vitro ADME. As to conditions: hepatocytes. As for the experimental part:
as §1

Data set [8] deals with T1, CYP3A4 (Homo sapiens, UniProt P08684).
T1 construct: Cyprotex
T1 sequence (P08684 whole entry, species assumed): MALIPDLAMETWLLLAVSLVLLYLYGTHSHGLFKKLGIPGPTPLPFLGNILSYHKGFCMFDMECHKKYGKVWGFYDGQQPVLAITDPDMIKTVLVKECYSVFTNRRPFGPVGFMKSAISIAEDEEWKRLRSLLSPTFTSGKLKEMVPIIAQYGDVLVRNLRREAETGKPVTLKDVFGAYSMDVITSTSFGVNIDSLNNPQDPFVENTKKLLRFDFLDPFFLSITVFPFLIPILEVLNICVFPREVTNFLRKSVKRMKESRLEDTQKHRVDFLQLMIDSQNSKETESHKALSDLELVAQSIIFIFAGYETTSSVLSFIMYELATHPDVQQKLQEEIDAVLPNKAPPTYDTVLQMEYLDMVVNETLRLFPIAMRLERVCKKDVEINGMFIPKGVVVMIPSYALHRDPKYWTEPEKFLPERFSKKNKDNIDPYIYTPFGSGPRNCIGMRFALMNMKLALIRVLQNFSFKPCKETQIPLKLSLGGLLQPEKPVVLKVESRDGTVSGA
Kind of data set: CYP3A4 inhibition. In kind it is in vitro ADME. The protocol:
as §1

The target of data set [9] is T2, TNKS2 (Homo sapiens, UniProt Q9H2K2).
T2 construct: TNKS2 (residues 873–1162); made in house
T2 sequence (Q9H2K2 873-1162): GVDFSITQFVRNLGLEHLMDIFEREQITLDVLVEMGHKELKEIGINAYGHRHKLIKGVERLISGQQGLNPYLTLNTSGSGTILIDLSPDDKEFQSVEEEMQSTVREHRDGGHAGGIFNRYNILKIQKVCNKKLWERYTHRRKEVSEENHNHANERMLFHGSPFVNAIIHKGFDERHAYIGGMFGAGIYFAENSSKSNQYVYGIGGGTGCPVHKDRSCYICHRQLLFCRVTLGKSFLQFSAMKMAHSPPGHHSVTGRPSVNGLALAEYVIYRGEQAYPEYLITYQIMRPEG
In kind it is biochemical. As for the experimental part: as §3
Human tankyrase active constructs for TNKS1 (residues 1030–1317) and TNKS2 (residues 873–1162) and other ARTD/PARP enzymes used in the assays were expressed and purified as previously described.[34],[35] The enzymatic assay is based on the measurement of unreacted NAD^+, which is chemically converted into a fluorescent compound.[36] The fluorescence intensity was measured with excitation/emission wavelengths of 372 and 444 nm, respectively, using Tecan Infinity M1000 Pro. The compounds were prepared in half log dilution series and the reactions were done in quadruplicates with protein and compound controls to exclude the effect of compound autofluorescence. All reactions were done at ambient temperature. 20 nM TNKS1 or 5 nM TNKS2 was incubated for 20 h in assay buffer (50 mM BTP, pH 7.0, 0.5 mM TCEP, 0.01% Triton-X100) with compound and 10 μM or 500 nM NAD^+, respectively. […] For ARTD3/PARP3, 20 nM enzyme was incubated for 4 h with compound and 500 nM NAD^+ in assay buffer (50 mM PIPES, pH 7.0, 5 mM MgCl2, 20 μg/mL activated DNA, 0.2 mg/mL BSA). The assay conditions for the other ARTD enzymes were used as previously described.[37]

Data set [10] deals with WNT/β-catenin signaling pathway reporter in HEK293 cells. Kind of data set: cells. It is filed as cell-based, human. The conditions noted are these: for IC50: Homo sapiens, HEK293, read-out: HEK293 IC50, WNT/β-catenin reporter; for activity in words: assay not given (TNKS2 / HEK293), Supplementary Table 1. The protocol:
as §3

Setting [11] is: pH 7.4, read-out: Kinetic Solubility pH 7.4.
Setting [12] is: A-B, read-out: Caco-2 permeability Papp AB.

Values after ≈ are worked out from the molar mass of the structure shown. Read-outs that look alike come from different tables or passages of the source.

One may read the solubility (kinetic) as solubility judged after dilution from a stock solution rather than from solid. What is called microsomal CLint is the rate of metabolic loss divided by the concentration. As a reminder, the AUC(0-inf) is total exposure, with the tail of the curve extrapolated. A high value points to more exposure. As usually defined, the AUC(0-t) is the area under the concentration-time curve up to a stated or last time point. Usually Cmax stands for the peak of the concentration-time curve. As usually defined, the MRT inf is a mean duration of stay, worked out from the concentration-time curve. The Tmax is the time at which the peak concentration occurs. By bioavailability is commonly meant dose-corrected exposure relative to a reference, in per cent. As a reminder, the hepatocyte CLint is the rate of metabolic loss divided by the concentration. A higher hepatocyte CLint goes with rapid turnover. Molecule `N#Cc1ccc2c(c1)[nH]c(=O)n2[C@H]1C[C@H](c2nnc(-c3ccncn3)n2-c2ccccc2Cl)C1` [compound 1] displayed a solubility (kinetic) in [1] (PBS, pH = 7) of 12 µM (≈ 5.63 µg/mL). In data set [1] (setting [11]), the kinetic solubility was 12 µM (≈ 5.63 µg/mL). For the same molecule, the Papp A→B in [2] (setting [12]) is 10 ×10⁻⁶ cm/s. In [3] (pH 7.4), this molecule returned a microsomal CLint at 1 μM of 242 µL/min/mg. Besides, in data set [3], the half-life at 1 μM stood at 6 min. For the same molecule, the microsomal CLint at 1 μM in data set [4] (pH 7.4) came out at 204 µL/min/mg. Besides, in data set [4], the half-life at 1 μM was found to be 7 min. Besides, in [5] (mouse po 5 mg/kg), the CL is 567 mL/min/kg and the Vd is 74.2 L/kg. In data set [5] (mouse po 5 mg/kg, 5 mg/kg), this molecule came in with a T1/2 of 90 min. In data set [5] (mouse, in vivo, po, 5 mg/kg), the AUC(0-inf) amounted to 147 ng·h/mL, the AUC(0-t) amounted to 145 ng·h/mL, the concentration peaked (Cmax) at 124 ng/mL and the mean residence time MRT inf amounted to 96.6 min. Besides, in [5] (mouse, in vivo, po, 5 mg/kg), the Tmax is 15 min and the bioavailability stood at 47%. The molecule also showed a half-life in [5] (mouse, in vivo, po, 5 mg/kg, T1/2, mouse po 5 mg/kg) of 90.6 min. Also, in [6], the IC50 was more than 10000 nM. The molecule further displayed a hepatocyte CLint in [7] of 9.8 µL/min/1e6 cells. The molecule further showed an IC50 in data set [8] of 1260 nM.
A word on the efflux ratio: it is a quotient of directional permeabilities that is used to spot active efflux. With `N#Cc1ccc2c(c1)[nH]c(=O)n2C12CC(c3nnc(-c4ccncn4)n3-c3ccccc3Cl)(C1)C2` [compound 19, 1-(3-(4-(2-Chlorophenyl)-5-(pyrimidin-4-yl)-4H-1,2,4-triazol-3-yl)bicyclo[1.1.1]pentan-1-yl)-2-oxo-2,3-dihydro-1H-benzo[d]imidazole-5-carbonitrile], the IC50 was 3.6 nM in data set [9] and 4.7 nM in data set [10]. Also, the kinetic solubility in [1] (setting [11]) came out at 1.5 µM (≈ 0.721 µg/mL). Also, the efflux ratio at 2 h, 10 µM in data set [2] amounted to 5.3. In data set [2] (setting [12]), the Papp A→B at 2 h, 10 µM is 5 ×10⁻⁶ cm/s. Also, the values for the microsomal CLint at 0.75 h, 1 µM in data set [3] (pH 7.4) and in [4] (pH 7.4) were 200 µL/min/mg and 256 µL/min/mg, respectively. For the same molecule, the half-life at 1 μM in data set [3] is 7 min; in data set [4], 5 min.
“3-(trans-3-(4-(2-Chlorophenyl)-5-(pyrimidin-4-yl)-4H-1,2,4-triazol-3-yl)cyclobutyl)isoindolin-1-one [compound 51]”: the activity in words result in [10] was “activity was restored”.
Consider `N#Cc1ccc2c(c1)[nH]c(=O)n2[C@H]1C[C@H](c2nnc(-c3ccncn3)n2-c2ccccc2C(F)(F)F)C1` [compound 66], for which the activity in words entry in data set [10] is “comparable activities to the previous lead 1”.
`O=C(N[C@H]1C[C@H](c2nnc(-c3ccncn3)n2-c2ccccc2Cl)C1)C1CCCCC1` [compound 53]: the activity in words entry in data set [10] is “inactive”.
With `N#Cc1ccc2c(c1)[nH]c(=O)n2[C@H]1C[C@@H](c2nnc(-c3ccncn3)n2-c2ccccc2Cl)C1` [compound 75], the potency in words result in data set [9] is on record as “decreased potency”.
Consider `CN(C(=O)c1ccccn1)[C@H]1C[C@H](c2nnc(-c3ccncn3)n2-c2ccccc2Cl)C1` [compound 44], for which, in data set [10], the activity in words entry is “inactive”.
For orientation: solubility means how much of the substance goes into solution per volume. Lower therefore signals little dissolved substance. In [1] (pH 7.4), `O=C(N[C@H]1C[C@H](c2nnc(-c3ccc(OC(F)F)cn3)n2-c2ccccc2F)C1)c1ccnc2cc(F)cnc12` [compound 35] showed a solubility of 54 µM (≈ 29.7 µg/mL).
`O=C(N[C@H]1C[C@H](c2nnc(-c3ccc(OC(F)F)cn3)n2-c2ccccc2F)C1)c1ccnc2cccnc12` [compound 34] showed a solubility in data set [1] (pH 7.4) of 14 µM (≈ 7.44 µg/mL).
In turn, `O=C(N[C@H]1C[C@H](c2nnc(-c3ccccn3)n2-c2ccccc2F)C1)c1ccnc2cccnc12` [compound 26] displayed a solubility in data set [1] (pH 7.4) of more than 80 µM.
For `O=C(Cc1ccccc1)N[C@H]1C[C@H](c2nnc(-c3ccncn3)n2-c2ccccc2Cl)C1` [compound 52], the activity in words result in data set [10] is “inactive”.
Still for that read-out and setting: as for `CC(=O)N[C@H]1C[C@H](c2nnc(-c3ccncn3)n2-c2ccccc2Cl)C1` [compound 54], the entry is “inactive”.
On to `Cc1cccc(-c2nnc([C@H]3C[C@H](NC(=O)c4ccnc5cc(F)cnc45)C3)n2-c2ccccc2F)n1` [compound 31], for which, in data set [1] (pH 7.4), the solubility was more than 80 µM.
For `Cc1cccc(-c2nnc([C@H]3C[C@H](NC(=O)c4ccnc5cccnc45)C3)n2-c2ccccc2F)n1` [compound 30], the solubility in data set [1] (pH 7.4) is more than 80 µM.
`N#Cc1ccc2c(c1)oc(=O)n2[C@H]1C[C@H](c2nnc(-c3ccncn3)n2-c2ccccc2Cl)C1` [compound 18, 3-(trans-3-(4-(2-Chlorophenyl)-5-(pyrimidin-4-yl)-4H-1,2,4-triazol-3-yl)cyclobutyl)-2-oxo-2,3-dihydrobenzo[d]oxazole-6-carbonitrile]: the IC50 worked out at 48 nM in [9] and 274 nM in [10].
Turning to `Cn1c(=O)n([C@H]2C[C@H](c3nnc(-c4ccncn4)n3-c3ccccc3Cl)C2)c2ccc(C#N)cc21` [compound 17], the IC50 in data set [9] amounted to 34 nM; in data set [10], 116 nM.
